Experimental data published in article PMC8481536, “Wells–Dawson phosphotungstates as mushroom tyrosinase inhibitors: a speciation study” (Scientific Reports, 2021).
Where two headings read alike, the source gives them in different places. Marks after values point to notes of the source that are not given here.

Target: T1, AbPPO4 (Agaricus bisporus, UniProt C7FF05, S179N/V121A)
T1 construct: GST (glutathione-S-transferase) (N, cleaved yes); made in house; host or cells: E. coli BL21(DE3)
Assay type: biochemical
Design: α · Ki: unit not given here
Conditions: for Inhibition type / α (inhibition parameter) from the Lineweaver–Burk intercepts / Ki / α (inhibition parameter) from activity plot: 50 mM Na-citrate pH 6.8; for Inhibition type: L-DOPA substrate; for α · Ki: from Lineweaver-Burk ordinate intercepts vs [I], [S] 0.4-[…] (Table S5); for α (inhibition parameter) from activity plot: hyperbolic fit
Protocol: AbPPO4 was purified and activated according to Pretzler et al.[15]. […] The diphenolase activity of tyrosinase was monitored using 1 mM L-DOPA (Fig. S1A) as the substrate. Considering that the Wells–Dawson POT stability is pH and possibly time dependent, a speciation study was performed which is detailed in the paragraph "Speciation of Wells–Dawson POT by ^183W-NMR and ^31P-NMR analyses at pH 6.8". The concentration of the investigated Wells–Dawson phosphotungstates was in the range between 0 and 5 mM. If enzymatic inhibition was observed, data were taken in triplicates and fitted with a hyperbolic function (cf. SI Eq. (5)) from a mixed inhibition model to evaluate the Ki and α-parameters. […] (Fig. S1B) was additionally tested and evaluated applying exactly the same mathematical model.
The type of enzymatic inhibition is usually investigated by linear plots according to Lineweaver–Burk, also allowing for further validation of the inhibitory constant Ki.[9] […] The slopes (SI Eq. (13), insets in Figs. S14–S17) and ordinate intercepts of these regression lines were further evaluated to validate the inhibitory constant Ki and the α-parameter from the non-linear regression procedure. […] Similarly, the Lineweaver–Burk ordinate intercepts were evaluated for the α-parameter (cf. Table S5 and Table 1).
UV–VIS measurements were carried out on a Shimadzu UV 2401PC following the specific absorption of dopachrome at 475 nm (ε = 3700 M^−1 cm^−1[7]). For all measurements, 50 mM Na-citrate at pH 6.8 was used as the buffer agent to ensure physiological conditions. The stock solutions of POTs were prepared on the day of measurements and used within 3 days.
For a general 1 mL reaction setup in a polystyrene cuvette, 1 µg/mL AbPPO4 (~ 23 nM) was used to catalyze the reaction. The relative inhibition was investigated using 1 mM L-DOPA as the substrate and applying an inhibitor concentration range from 0 to 5 mM to obtain activity curves. For the Lineweaver–Burk plots, a L-DOPA concentration range of 0.4–1.5 mM was assayed for three different POT concentrations, respectively. […]
is the enzymatic reaction velocity, the maximal enzymatic velocity of the enzyme, the concentration for the half-maximal velocity and the substrate concentration. If enzyme inhibition is taken into account, apparent values (e.g., , , ) are employed. For all inhibition mechanisms the apparent maximal velocity is given by and the apparent Michalis-Menten constant is Equations (3) and (2) are inserted into equation (1). To obtain the relative inhibition (in %), is divided by the uninhibited enzymatic velocity .
Herein, [I] refers to the inhibitor concentration, Ki is the inhibition constant measuring the […]
The three ideal inhibition types are reflected by three limiting conditions for α, with α as quotient of the inhibition constant of the uncompetitive and competitive inhibition:
(A) 0 < α <<1: uncompetitive inhibition
(B) α = 1: non-competitive inhibition
(C) α >> 1: competitive inhibition […]
uncompetitive and non-competitive inhibition modes.
The concentration of L-DOPA was kept constant at 1 mM for all experiments.
The final hyperbolic equation (5) was used for the curve

[1] = L-DOPA 0.4-[…], three inhibitor concentrations, read-out: Ki (inhibition constant) from the Lineweaver–Burk slopes
[2] = hyperbolic fit of mixed inhibition model, 1 mM L-DOPA, 0-5 mM inhibitor, read-out: Ki (inhibition constant) from activity plot

T1 sequence (C7FF05 1-383 V121A/S179N): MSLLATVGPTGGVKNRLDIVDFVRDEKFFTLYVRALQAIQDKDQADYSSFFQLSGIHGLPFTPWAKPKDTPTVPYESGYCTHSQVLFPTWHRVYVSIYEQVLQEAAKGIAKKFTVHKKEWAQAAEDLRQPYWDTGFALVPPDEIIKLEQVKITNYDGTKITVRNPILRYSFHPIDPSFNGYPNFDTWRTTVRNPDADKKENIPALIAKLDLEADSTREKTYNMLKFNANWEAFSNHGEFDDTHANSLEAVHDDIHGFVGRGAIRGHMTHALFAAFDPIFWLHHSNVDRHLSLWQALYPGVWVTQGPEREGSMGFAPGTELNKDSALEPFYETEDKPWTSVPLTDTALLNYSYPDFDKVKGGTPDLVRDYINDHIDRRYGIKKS

Substance	Inhibition type	α (inhibition parameter) from the Lineweaver–Burk intercepts (L-DOPA 0.4-[…])	Ki [1] [mM]	α · Ki	Ki [2] [mM]	α (inhibition parameter) from activity plot (1 mM L-DOPA)
(NH4)12[H2P^V2W^VI12O48]·24H2O [[P2W12]^12−]	mixed-type inhibition	0.28	5.6	1.58	7.5	0.017
K6[α/β-P^V2W^VI18O62]·14H2O [[P2W18]^6−]	mixed-type inhibition	0.22	13	2.85	9.7	0.013
K12[P^V2W^VI15O56]·24H2O [[P2W15]^12−]	mixed-type inhibition	0.20	10.7	2.14	13.6	0.003
K10[α2-P^V2W^VI17O61]·20H2O [[P2W17]^10−]	mixed-type inhibition	0.01^a, 0.01^b	10.6	0.10	6.5	0.01^a, 0.01^b
